Assays:
cell-mediated immunity [1] = test: Delayed-type hypersensitivity (D.T.H.) to sheep red blood cells, foot pad swelling in normal mice; assay type: in vivo, CDF1 mice; conditions: single dose; for Thickness of the foot pad: SRBC-sensitized female CDF1 mice, measured 24 h after challenge, control 8.6 ± 1.29; for % on the control's value: foot pad thickness, control = 100 %
Description: The action of &-benzyl malic acid on cell-mediated immunity was investigated using as its index the degree of delayed-type hypersensitivity (hereinafter referred to as D.T.H.) obtained by inoculating the foot pads of mice with sheep red blood cells (hereinafter referred to as SRBC) used as the antigen (Reference: J.Exp.Med. 139, 1529-1539, 1974).
A suspension of […] SRBCs in 0.05 ml of physiological saline solution was inoculated subcutaneously to the foot pad of one of the hind legs of CDF1 mice (female, 8 weeks old). Simultaneously, an aqueous solution containing 5, 0.5, 0.05 or 0.005 mg/kg of α-benzyl malic acid was administered intraperitoneally in a single dose. Four days after administration, a suspension of 10^8 SRBCs in 0.05 ml of physiological saline solution was subcutaneously administered to the foot pad of the other hind leg to induce secondary immune response. Twenty-four hours later, swelling on the foot pad (increased thickness of the foot pad) was measured with a calipers. The thickness of the foot pad in control animals, which had been sensitized with SRBCs and intraperitoneally administered physiological saline solution without having received the test compound, was evaluated to be 100 %. The thickness of the foot pad in the test animals that had been treated in the aforementioned way was compared with that in the control animals, thereby judging the cell-mediated immunity potentiating effect of the test compound.

cell-mediated immunity [2] = test: Picryl chloride ear swelling in cancer-inflicted (Ascites Sarcoma 180) mice; assay type: in vivo, CDF1 mice; conditions: for Increase in ear thickness: Sarcoma 180-bearing female CDF1 mice, picryl chloride, control 4.11 ± 1.11; for Rate to the control value: increase in ear thickness T/C, control = 100.0
Text: (Effect on cell-mediated immunity in cancer-inflicted mice; picryl chloride was used as the antigen)
10^6 cells of Ascites Sarcoma 180 were intraperitoneally transplanted to groups of 12-week-old female CDF1 mice (6 mice/group). The day of transplantation was designated as Day 0. On Day 1, a 6 % solution of picryl chloride in ethanol was applied to a shaven skin (25 mm x 15 mm) of the abdomen with the use of a cut absorbent cotton (20 mm x 20 mm x 2 mm) impregnated with the solution to thereby sensitize the mice. On Day 8, both ears were measured for thickness with a dial gauge, to determine the baseline value (a).
Then, both ears were sensitized with a 20 mm x 4 mm x 1 mm cut absorbent cotton impregnated with a 1 % solution of picryl chloride in olive oil. On Day 9, both swollen ears were measured for their thickness with a dial gauge to obtain a value (b). The baseline value (a) was subtracted from the value (b) to determine the increase in ear thickness (b - a) for the control group (C).
On the other hand, 5.0, 0.5, 0.05 or 0.005 mg/kg of the test compound dissolved in physiological saline solution was orally administered once daily for 6 consecutive days between the day and 8 days after inoculation of Sarcoma 180. The mice were sensitized with picryl chloride in the same way as in the control group, and the thickness of the ears was similarly measured to determine the increase in ear thickness (b' - a') for the treatment group (T).
The rate of increase in ear thickness for the treatment group to that for the control group was calculated from the following equation: [formula] to determine the cell-mediated immunity modulating activity of the present compound.

[3] = Acute toxicity test in mice; assay type: in vivo; conditions: i.v. dose of 500 mg/kg
Text: The present compound is therefore believed to be a safe substance.

[4] = 0.005 mg/kg orally once daily for 6 consecutive days
[5] = 0.05 mg/kg orally once daily for 6 consecutive days
[6] = 0.5 mg/kg orally once daily for 6 consecutive days
[7] = 5.0 mg/kg orally once daily for 6 consecutive days

Row | Structure (SMILES) | Thickness of the foot pad (cell-mediated immunity [1]; 0.5 mg/kg intraperitoneally) | % on the control's value (cell-mediated immunity [1]; 0.5 mg/kg intraperitoneally) | Increase in ear thickness (cell-mediated immunity [2]; [4]) | Rate to the control value (cell-mediated immunity [2]; [4]) | Increase in ear thickness (cell-mediated immunity [2]; [5]) | Increase in ear thickness (cell-mediated immunity [2]; 0.05 mg/kg orally once daily for 6 consecutive days, listed as the present compound) | Rate to the control value (cell-mediated immunity [2]; [5]) | Increase in ear thickness (cell-mediated immunity [2]; [6]) | Rate to the control value (cell-mediated immunity [2]; [6]) | Increase in ear thickness (cell-mediated immunity [2]; [7]) | Rate to the control value (cell-mediated immunity [2]; [7]) | deaths in acute toxicity tests [3] | Thickness of the foot pad (cell-mediated immunity [1]; 0.005 mg/kg intraperitoneally) | % on the control's value (cell-mediated immunity [1]; 0.005 mg/kg intraperitoneally) | Thickness of the foot pad (cell-mediated immunity [1]; 0.05 mg/kg intraperitoneally) | % on the control's value (cell-mediated immunity [1]; 0.05 mg/kg intraperitoneally) | Thickness of the foot pad (cell-mediated immunity [1]; 5 mg/kg intraperitoneally) | % on the control's value (cell-mediated immunity [1]; 5 mg/kg intraperitoneally)
1 | CC(C)C[C@H](NC(=O)[C@@H](O)[C@H](N)Cc1ccccc1)C(=O)O [Bestatin, [(2S,3R)-5-amino-2-hydroxy-4-phenyl-(S)-leucine], reference compound] | 12.6 ± 1.12 x 0.1 mm | 147% |  |  |  |  |  |  |  |  |  |  |  |  |  |  |  | 
2 | O=C(O)CC(O)(Cc1ccccc1)C(=O)O (stereo not drawn) [α-benzyl malic acid] | 14.4 ± 1.52 x 0.1 mm | 167% | 5.18 ± 0.67 x 0.01 mm | 126.0% | 5.29 ± 0.33 x 0.01 mm | 5.29 + 0.33 x 0.01 mm | 128.7% | 5.08 ± 0.56 x 0.01 mm | 123.6% | 4.71 ± 0.95 x 0.01 mm | 114.6% | no deaths | 11.8 ± 1.15 x 0.1 mm | 137% | 13.4 ± 1.61 x 0.1 mm | 156% | 12.8 ± 1.42 x 0.1 mm | 149%

Reference: patent EP0101944A1, “Immunomodulators containing as the active ingredient alpha-benzyl malic acid” (MICROBIAL CHEMISTRY RESEARCH FOUNDATION, priority 1982, dated 1984)
